Each block holds one molecule with its values, some of them ahead of it.
Columns and labels:
[1] = test system: methicillin-Sensitive Staphylococcus aureus (MSSA); assay: Test C: planktonic antibacterial broth microdilution assay (MIC) vs MSSA; assay type: cell-based; settings: 37° C., growth read after 24 to 48 hours at OD 600 nm
Description: (§1) Test C. Planktonic (Free-Living) Antibacterial Assay.
(§2) Planktonic antibacterial activity can be determined using a broth microdilution assay in which log-phase bacteria are grown at 37° C. in appropriate medium containing two-fold serial dilutions of a compound to yield a final concentration ranging from 256 to 0.1 μg/ml. For determination of minimal inhibitory concentration (MIC) values, bacterial growth is monitored after 24 to 48 hours by measuring optical density at 600 nm.

[2] = target: T1, S. aureus FtsZ GTPase (Staphylococcus aureus, UniProt P0A031); assay: Test B: FtsZ GTPase inhibition, colorimetric malachite green assay; assay type: biochemical; settings: 1 mM GTP, 20 mM CaCl2, 2 μM FtsZ, 60 minutes at room temperature, read-out: IC50 (compound concentration at which FtsZ GTPase activity is inhibited by 50%)
T1 sequence (P0A031 1-390): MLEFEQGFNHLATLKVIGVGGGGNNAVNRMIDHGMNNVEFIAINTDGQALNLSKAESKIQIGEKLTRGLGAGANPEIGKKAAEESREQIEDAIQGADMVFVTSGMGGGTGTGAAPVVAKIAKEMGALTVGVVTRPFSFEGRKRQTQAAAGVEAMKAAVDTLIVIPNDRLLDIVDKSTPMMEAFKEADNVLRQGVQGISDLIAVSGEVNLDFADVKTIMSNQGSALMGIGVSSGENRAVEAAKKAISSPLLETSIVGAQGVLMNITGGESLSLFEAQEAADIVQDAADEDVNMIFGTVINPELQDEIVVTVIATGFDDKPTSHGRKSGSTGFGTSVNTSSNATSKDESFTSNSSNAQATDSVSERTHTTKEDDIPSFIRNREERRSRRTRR
Excerpt: Test B. Determining the FtsZ GTPase Inhibitory Activities of Compounds of the Invention.
Compound-induced inhibition of the FtsZ GTPase activity can be tested using a colorimetric assay in which the inorganic phosphate (Pi) released upon FtsZ-catalyzed hydrolysis of GTP reacts with malachite green and molybdate under acidic conditions to form a ternary complex that absorbs light at 650 nm, thus enabling quantitation of Pi levels by recording the absorbance at 650 nm (A650). All reactions are conducted in triplicate in 96-well microtiter plates. Differing concentrations (ranging from 0 to 1.5 mM) of compound are combined with 1 mM GTP and 20 mM CaCl2, the latter being used because FtsZ GTPase activity requires the presence of Ca2+ ions. The reactions will be initiated by addition of 2 μM FtsZ and allowed to incubate for 60 minutes at room temperature. Following incubation, the reactions will be stopped by adding 80 μl of an acidic malachite green-molybdate solution containing 0.3 mg/ml malachite green oxalate, 2 mg/ml sodium molybdate, 0.5 mg/ml Triton X-100, and 0.7 N HCl. […] Ten minutes following addition of the acidic malachite green-molybdate solution, the A650 value for each reaction are recorded using a microtiter plate reader. […] This standard curve is then fit by linear regression analysis to yield the quantitative relationship between A650 and Pi concentration. […]

[3] = test system: MRSA; assay: Test C: planktonic antibacterial broth microdilution assay (MIC) vs MRSA; assay type: cell-based; settings: Staphylococcus aureus, 37° C., growth read after 24 to 48 hours at OD 600 nm
Description: as §1, §2

SMILES: COc1cc2cc(-c3cccc(C(C)(C)C)c3)nc(C/N=C(/C)N)c2cc1OC [Example 23]
MIC [1]: ≤ 8 µg/mL

SMILES: COc1cc2cc(-c3cccc(C(C)(C)C)c3)nc(CN=C(N)N)c2cc1OC [Example 13]
MIC [1]: ≤ 8 µg/mL
MIC [3]: ≤ 8 µg/mL

SMILES: COc1cc(-c2cc3cc(OC)c(OC)c(OC)c3c(C)[n+]2C)cc(-c2cc(-c3ccc(F)cc3)cc(-c3ccc(F)cc3)c2)c1OC.[I-] [Example 19]
MIC [1]: ≤ 8 µg/mL
MIC [3]: ≤ 8 µg/mL
IC50 [2]: < 100 µM

SMILES: COc1cc(-c2cc3cc(OC)c(OC)c(OC)c3c(C)[n+]2C)cc(-c2cccc(-c3ccc(F)cc3)c2)c1OC.[I-] [Example 15]
MIC [1]: ≤ 8 µg/mL
MIC [3]: ≤ 8 µg/mL

Results, then the molecule that gave them:

MIC [1]: ≤ 8 µg/mL
IC50 [2]: < 100 µM
SMILES: COc1cc(-c2cc3ccccc3c[n+]2C)cc(-c2cccc(-c3ccc(F)cc3)c2)c1OC.[I-] [Example 22]

MIC [1]: ≤ 8 µg/mL
SMILES: COc1cc2cc(-c3cccc(-c4ccccc4)c3)nc(N=C(N)N)c2cc1OC [Example 7]

MIC [1]: ≤ 8 µg/mL
SMILES: COc1cc2cc(-c3cccc(-c4ccccc4)c3)[n+](C)c(N(C)C)c2cc1OC.[I-] [Example 5]

MIC [1]: ≤ 32 µg/mL
SMILES: COc1cc2cc(-c3cc(-c4ccccc4)cc(-c4ccccc4)c3)nc(N=C(N)N)c2cc1OC [Example 3]

MIC [1]: ≤ 8 µg/mL
SMILES: COc1cc2cc(-c3cccc(-c4ccccc4)c3)nc(NCCN)c2cc1OC [Example 9]

From patent publication US8933096B2, “Antimicrobial agents” (Rugers, The State University of New Jersey, priority 2010, dated 2015)
